Laboratory results from patent US20200407683A1, “IN VITRO IMMUNE SYNAPSE SYSTEM AND METHOD OF IN VITRO […] RESPONSE USING THE SAME” (National Pingtung University of Science and Technology, priority 2018, published 2020).

System: IL-2
Assay: In vitro immune synapse system, immune adjuvant immunostimulation: IL-2 level
Assay type: cell-based, pig
Details: 2 μg/well poly IC, in comparison to IL-18 (0.1 ng/well); Treg/APC system; FIG. 5; P<0.05
Procedure: In this Example, a commercial kit of porcine IL-2 and IL-10 was used for quantifying the IL-2 and IL-10 levels in the porcine cell supernatant. According to the steps of the specification provided in the kit, the standard liquid provided by the kit was diluted for later use, and a flow was described briefly below. Firstly, 100 μL of sample or diluted standard liquid was added into a 96-well plate and incubated for 1 hour. Next, 200 μL of biotinylated antibody reagent was added into the 96-well plate and incubated for another hour. […] Afterwards, 100 μL of stop solution was added to terminate the reaction in order to measure the absorbance. […]
Generally, the absorbance could be read by a commercial continuous spectrophotometer at a wavelength of 450/540 nm, and a standard curve was established by serially-diluted standard solution of various concentrations versus respective absorbances. Then, the cell cytokine concentration of each sample was calculated according to the regression equation of the standard curve, and a commercially statistical software (such as a SAS statistical program) was used to calculate significant difference between the means of all groups, as shown by the results of FIGS. 3A to 3B. […]

poly-IC
IL-2 level in the immunological synapse: significantly improve
